Assay results from PubChem BioAssay (NCI).
“And” between values parts separate entries of the source, which are not always exact repeats. Equal entries are not always repeated.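 Assay format: 96-well plates, 48-hour exposure. GI50 is the concentration that inhibits growth by half. TGI denotes the concentration required for complete inhibition of growth.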

Columns and labels:
Assay in all cases: growth of human tumour cells (NCI), 48 h
[1] = test system: EKVX NSCLC
[2] = test system: HS 578T breast
[3] = test system: IGROV1 ovarian
[4] = test system: MALME-3M melanoma
[5] = test system: NCI-H23 lung
[6] = test system: NCI-H522 lung
[7] = test system: OVCAR-3 ovarian
[8] = test system: SF-268 CNS
[9] = test system: T-47D breast
[10] = test system: UACC-257 melanoma

| Compound | TGI [1] [µM] | TGI [2] [µM] | TGI [3] [µM] | TGI [4] [µM] | TGI [5] [µM] | TGI [6] | TGI [7] [µM] | TGI [8] [µM] | TGI [9] [µM] | TGI [10] [µM] | GI50 [2] [µM] | GI50 [1] [µM] | GI50 [3] [µM] | GI50 [4] [µM] | GI50 [5] [µM] | GI50 [6] [µM] | GI50 [7] [µM] | GI50 [8] [µM] | GI50 [9] [µM] | GI50 [10] [µM] |
| --- | --- | --- | --- | --- | --- | --- | --- | --- | --- | --- | --- | --- | --- | --- | --- | --- | --- | --- | --- | --- |
| Oc1c(-c2ccccc2)sc2ccccc12 | 86.6 | > 100 | > 100 | 59.6 | 77.5 | > 100 µM | 36.2 | > 100 | 54.4 | 98.9 | – | – | – | – | – | – | – | – | – | – |
| CCCCCC(=O)OCC1(CO)C/C(=C\CC(C(C)C)C(C)C)C(=O)O1 (stereo unspecified) | > 100 | > 100 | > 100 | > 100 | > 100 | 81.3 µM | > 100 | > 100 | > 100 | > 100 | – | – | – | – | – | – | – | – | – | – |
| Cn1cc(C[C@@H](N)C(=O)O)c2ccccc21 | > 100 | > 100 | > 100 | > 100 | > 100 | > 100 µM | > 100 | > 100 | > 100 | > 100 | > 100 | – | – | – | – | – | – | – | – | – |
| [N-]=[N+]=Nc1c([N+](=O)[O-])c(Cl)nc2ccccc12 | 7.45 | 8.64 | 4.04 | 3.41 | 6.64 | 0.866 µM | 2.86 | 11.7 | 4.82 | 3.45 | – | – | – | – | – | – | – | – | – | – |
| CCOc1ccc2c(ccc(/C=C\c3cc(C)c4cccnc4c3O)[n+]2C)c1 | 15.2 | > 100 | 21.1 | 14 | 43.5 | 5.14 µM | 2 | 28.3 | 6.2 | 6.9 | – | – | – | – | – | – | – | – | – | – |
| O=C1c2ccccc2C(=O)N1CCCCCCNOCCCN1C(=O)c2ccccc2C1=O | > 100 | > 100 | > 100 | > 100 | 97.1 | 79.3 µM | > 100 | > 100 | 65 | 86 | – | – | – | – | – | – | – | – | – | – |
| c1ccc2c3c([nH]c2c1)C1c2[nH]c4ccccc4c2CCN1CC3 | 20.2 | 44.7 | 31.1 | 30 | 28.2 | 28.6 µM | 25.1 | 30.3 | 37.1 | 28.6 | – | – | – | – | – | – | – | – | – | – |
| CCOc1ccc(/C=C/[N+](=O)[O-])cc1 | 81.7 | > 100 | > 100 | 36.9 | > 100 | 28 µM | 15.8 | 28.6 | 42.8 | 24 | 35.3 | 25.7 | 21.8 | 19 | 18.5 | 13.2 | 4.53 | 14.1 | 17.6 | 11.2 |
| Cc1ccc(S(=O)(=O)Oc2ccc(OS(=O)(=O)c3ccc(C)cc3)c3c2C(=O)c2ccccc2C3=O)cc1 | > 100 | > 100 | > 100 | > 100 | > 100 | > 100 µM | > 100 | > 100 | > 100 | > 100 | – | – | – | – | – | – | – | – | – | – |
| COc1ccc(-n2c(C)nc3ccc(NC4OCC(O)C(O)C4O)cc3c2=O)cc1 (stereo unspecified) | > 100 | > 100 | > 100 | > 100 | > 100 | 72 µM and 55 µM | > 100 | > 100 | > 100 | > 100 | – | – | – | – | – | – | – | – | – | – |
| CCCN(CCCCN1C(=O)c2ccccc2C1=O)CC1COc2ccccc2O1 (stereo unspecified) | > 100 | > 100 | > 100 | > 100 | > 100 | > 100 µM | > 100 | > 100 | > 100 | > 100 | – | – | – | – | – | – | – | – | – | – |
| N=C(N)n1[nH]c2c(c1=O)CCCC2 | > 100 | > 100 | > 100 | > 100 | > 100 | > 100 µM | > 100 | > 100 | > 100 | > 100 | – | – | – | – | – | – | – | – | – | – |
| Cc1ccc(/C(=C/C=C(C#N)C#N)Sc2cc(Cl)ccc2Cl)cc1 | 46.6 | 9.23 | 32.6 | 35.5 | 16.1 | 22.1 µM | 11.8 | 43.9 | 67.5 | 7.8 | – | – | – | – | – | – | – | – | – | – |
| O=[N+]([O-])c1cccc2nc3ccccc3c(NCCCN3CCOCC3)c12 | 0.0559 | > 100 | 0.084 | 0.026 | 0.0418 | 0.0936 µM | 0.0484 | 0.744 | 0.241 | 0.0527 | – | – | – | – | – | – | – | – | – | – |
| CC1(C)CN=C(Nc2ccc(Cl)cc2)S1 | > 100 | > 100 | > 100 | > 100 | > 100 | > 100 µM | > 100 | > 100 | > 100 | > 100 | – | – | – | – | – | – | – | – | – | – |
